# Literature values, collected in US20190201327A1 (AMPERSAND BIOPHARMACEUTICALS, INC., priority 2017, published 2019).
# System: neovascularization
smiles,measurement,value
"CC1=C(CO)C(=O)O[C@@H]([C@@H](C)[C@H]2CC[C@H]3[C@@H]4C[C@H]5O[C@]56[C@@H](O)C(N=[N+]=[N-])CC(=O)[C@]6(C)[C@H]4CC[C@]23C)C1 (stereo partly shown) [3-azido WFA, 3-azido Withaferin A]",neovascularization in vivo,abrogated neovascularization in vivo in a dose dependent manner
